Among the test systems are KM20L2 colon; LXFL 529 NSCLC; M19-MEL melanoma; HOP-18 NSCLC; XF 498 CNS; RXF-631 renal; MDA-N.
What all share (test): NCI anticancer screen, dose series, 48 h

Molecules are shown by their SMILES.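 Exposure lasted 48 hours, with cells grown in 96-well plates and compounds tested at five concentrations. TGI: concentration producing complete growth inhibition.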 Some results are limits rather than exact numbers.

As for `CCCCCCCCCC1CC(=O)OC2=C1C(=O)CCC2` (stereo unspecified), the TGI in the experiment with KM20L2 colon, with LXFL 529 NSCLC, in the experiment with M19-MEL melanoma, in the experiment on HOP-18 NSCLC, with XF 498 CNS and with RXF-631 renal was greater than 100 µM throughout.

Turning to `COC(=O)NC(Cc1ccccc1)NC(=O)OC(C)(C)C` (stereo unspecified), the TGI in the experiment with MDA-N is greater than 100 µM.

As to `COC(=O)C1=C(C)NC(C)=C(C(=O)OC)C1c1cccc(/[N+]([O-])=C/c2ccccc2)c1`, in the experiment with MDA-N, the TGI is 31.6 µM.

As to `O=C(Nc1ccc(Br)c2ccccc12)c1ccc2ccccc2c1O`, the TGI with MDA-N came to 15.6 µM.

In the case of `O=C(NC1CCC[C@H]1OC(=O)c1ccccc1)c1ccccc1` (stereo partly specified), the TGI in the experiment on M19-MEL melanoma, with XF 498 CNS and in the experiment with RXF-631 renal was greater than 100 µM in each case.

Regarding `CC1(C)CC(=O)C(CC2C(=O)CCCC2=O)C(=O)C1`, the TGI in the experiment with KM20L2 colon, with LXFL 529 NSCLC, in the experiment on M19-MEL melanoma, with HOP-18 NSCLC and in the experiment with XF 498 CNS was greater than 100 µM each time.

`CC12CCC(C1)C(C)(C)C2OC(=O)c1ccccc1N` (stereo unspecified): the TGI in the experiment on MDA-N was 29.7 µM.

`Clc1ccc2c(NC3CCC(N4CCCCC4)CC3)ccnc2c1` (stereo unspecified) came in with a TGI with MDA-N of 33.2 µM.

`OC(c1cc(C(F)(F)F)nc2c(Cl)cc(Cl)cc12)C1CCCCN1` (stereo unspecified): in the experiment on MDA-N, the TGI is greater than 100 µM.

Take `NC(=O)NNC/C(Cl)=C(\Cl)C(=O)O`: the TGI in the experiment with KM20L2 colon, in the experiment on LXFL 529 NSCLC, in the experiment on M19-MEL melanoma, with HOP-18 NSCLC and in the experiment on XF 498 CNS was greater than 100 µM each time.

As to `CC1(C)OCC2OC(n3cnc4c(N)nc(Cl)nc43)C(OS(C)(=O)=O)C2O1` (stereo unspecified), the TGI in the experiment on MDA-N was greater than 100 µM.

Consider `COc1ccc(C(C2=C(O)CC(C)OC2=O)C2=C(O)CC(C)OC2=O)cc1` (stereo unspecified), for which the TGI with KM20L2 colon, with LXFL 529 NSCLC, with M19-MEL melanoma and with RXF-631 renal was greater than 100 µM each time.

`C=C1C(=O)O[C@@H]2/C=C(/C)[C@@H](OC(C)=O)C[C@@H](O)/C(C)=C\[C@@H](OC(=O)[C@]3(C)O[C@@H]3C)[C@@H]12` showed a TGI in the experiment on MDA-N of 30.1 µM.

`COc1cc2[nH]c3c(c2cc1OC)CCN[C@@]31CC[C@@]2(CC3c4c(cc(OC)c(O)c42)CCN3C)C[C@@H]1OC` (stereo partly specified): the TGI with KM20L2 colon is 86.3 µM; with MDA-N it was 35.9 µM; in the experiment on LXFL 529 NSCLC it was greater than 100 µM; with M19-MEL melanoma, 40 µM; with HOP-18 NSCLC, greater than 81.7 µM; with XF 498 CNS, 32.4 µM. This compound registered a TGI in the experiment on RXF-631 renal of 25.2 µM.

For `CC1C(c2ccccc2)N(C)C(c2ccccc2)C(C)C1(O)c1ccccc1` (stereo unspecified), the TGI in the experiment on KM20L2 colon, with LXFL 529 NSCLC and in the experiment with M19-MEL melanoma was greater than 100 µM each time.

Turning to `CC(=O)C(CN1C(=O)c2ccccc2C1=O)C(C)=O`, the TGI with MDA-N is greater than 100 µM.

Take `Cc1cc(-c2ccccc2)nc(Nc2cc3ccccc3[nH]2)n1`: the TGI in the experiment with KM20L2 colon, in the experiment on LXFL 529 NSCLC, in the experiment with M19-MEL melanoma and in the experiment on XF 498 CNS was greater than 100 µM throughout.

In the experiment on MDA-N, `Cc1cc2nc3c(C#N)c(C)c(CCCl)c(Cl)n3c2cc1C` returned a TGI of 6.12 µM.

Take `CCO/C=C\C12CCCC1NC(c1ccccc1)(c1ccccc1)O2` (stereo unspecified): the figures for the TGI in the experiment with KM20L2 colon, in the experiment with LXFL 529 NSCLC and in the experiment on M19-MEL melanoma were 57.9 µM, 74.5 µM and 64.5 µM, respectively.

The compound `Nc1nc2cc(Cl)ccc2n1N` displayed a TGI in the experiment with MDA-N greater than 100 µM.

Consider `COc1cc(/C=C2\[C@@H]3NC(Cc4c(OC)c(C)c(OC)c(OC)c43)C(=O)N2Cc2ccccc2)c(OC)c(C)c1OC`, for which the TGI was 96.3 µM in the experiment with KM20L2 colon; greater than 100 µM with LXFL 529 NSCLC; 77.3 µM in the experiment with M19-MEL melanoma; greater than 100 µM with HOP-18 NSCLC; greater than 100 µM in the experiment with RXF-631 renal.

For `O=[N+]([O-])c1ccc2c(c1)C(N1CCN(CCO)CC1)Cc1ccc(F)cc1S2` (stereo unspecified), in the experiment on MDA-N, the TGI was found to be 24.1 µM.

For `CCC(O)CCCCCCCCCCCCCCC(=O)O` (stereo unspecified), the TGI in the experiment on LXFL 529 NSCLC, in the experiment on M19-MEL melanoma, in the experiment with HOP-18 NSCLC, in the experiment with XF 498 CNS and in the experiment on RXF-631 renal was greater than 100 µM each time.

For the compound `C=CCC1(CN(C)C)CC/C(=C\c2ccc3c(c2)OCO3)C1=O` (stereo unspecified), the TGI with KM20L2 colon is greater than 100 µM; in the experiment with LXFL 529 NSCLC it was greater than 100 µM; in the experiment on M19-MEL melanoma, greater than 100 µM; in the experiment with HOP-18 NSCLC it was greater than 100 µM; with RXF-631 renal, 78.4 µM.

Consider `CCCCCCCCCCCCCCNCC(OC)OC`, for which the TGI in the experiment on KM20L2 colon was determined as 28.8 µM; in the experiment on LXFL 529 NSCLC, 30 µM; with M19-MEL melanoma, 32.3 µM; in the experiment on HOP-18 NSCLC, 26.4 µM; in the experiment with XF 498 CNS, 31.7 µM; in the experiment on RXF-631 renal it was 31.2 µM.

The compound `Cc1ccc2ccccc2c1CSc1nc(N)nc2c1ncn2CC(C)C` returned a TGI with MDA-N greater than 100 µM.

Consider `CC1(c2ccc(F)cc2)C2C(=O)NC(=O)C1C(=O)NC2=O` (stereo unspecified), for which the TGI in the experiment on KM20L2 colon, in the experiment on LXFL 529 NSCLC, in the experiment with M19-MEL melanoma and with XF 498 CNS was greater than 100 µM each time.

As to `OC1OCC(COc2cc(Cl)c(Cl)cc2Cl)OC1O` (stereo unspecified), the TGI was greater than 100 µM with KM20L2 colon; greater than 100 µM in the experiment on LXFL 529 NSCLC; greater than 100 µM in the experiment on M19-MEL melanoma; 90.8 µM in the experiment with HOP-18 NSCLC; greater than 100 µM in the experiment with RXF-631 renal.

In the case of `COc1ccc(/C(=N/O)c2ccccc2C2=Nc3ccccc3C(NCc3ccccc3)O2)cc1C` (stereo unspecified), the TGI with MDA-N was greater than 100 µM.

As for `C/C(=N\N=C(N)N)C(CN1CCOCC1)C(c1ccccc1)c1c(O)c2ccccc2oc1=O` (stereo unspecified), the TGI in the experiment on KM20L2 colon, in the experiment on LXFL 529 NSCLC, with M19-MEL melanoma, in the experiment with HOP-18 NSCLC and with XF 498 CNS was greater than 100 µM throughout.

As to `Cc1nc(N)c(N2CCN(S(=O)(=O)N(Cc3ccccc3)Cc3ccccc3)CC2)c(=O)[nH]1`, in the experiment on MDA-N, the TGI is greater than 100 µM.

With `O=C(Nc1ccc(Br)cc1)C(=O)C(C(=O)c1ccc(Cl)c(Cl)c1)C1OC(=O)c2ccccc21` (stereo unspecified), the TGI in the experiment with KM20L2 colon is greater than 100 µM; in the experiment on LXFL 529 NSCLC, 23.2 µM; with M19-MEL melanoma it was 31.1 µM; in the experiment with HOP-18 NSCLC it was 77 µM; with XF 498 CNS it was 96.2 µM.

Take `C=CC1=C(C)C(/C=c2\[nH]/c(=C/c3[nH]c(CC4NC(=O)C(C)/C4=C\C)c(C)c3CCC(=O)O)c(CC(=O)O)c2C)=NC1=O` (stereo unspecified): the TGI in the experiment on KM20L2 colon, in the experiment with LXFL 529 NSCLC, with M19-MEL melanoma, in the experiment with HOP-18 NSCLC, with XF 498 CNS and with RXF-631 renal was greater than 100 µM each time.

As for `Oc1c(C(Nc2ccccn2)c2ccccc2)ccc2cccnc12` (stereo unspecified), in the experiment on MDA-N, the TGI was greater than 100 µM.

With `O=C(CC12C3C4C1C1C2C3C41CC(=O)NO)NO` (stereo unspecified), the TGI with KM20L2 colon, with LXFL 529 NSCLC, with XF 498 CNS and in the experiment with RXF-631 renal was greater than 100 µM throughout.

On to `O=C1CCC2(O)c3ccccc3C2Cc2ccccc21` (stereo unspecified), for which the TGI in the experiment on KM20L2 colon, in the experiment with M19-MEL melanoma, in the experiment with HOP-18 NSCLC and in the experiment with XF 498 CNS was greater than 100 µM in each case.

For `CSc1ccc(N2C(=O)C3c4[nH]c5ccccc5c4C4CCC(C(C)(C)C)CC4C3C2=O)cc1` (stereo unspecified), the TGI is greater than 100 µM in the experiment with KM20L2 colon; 47.5 µM in the experiment on LXFL 529 NSCLC; greater than 100 µM with M19-MEL melanoma; 53.5 µM with HOP-18 NSCLC; greater than 100 µM with XF 498 CNS.

Consider `Cc1cc(N(CCC#N)S(=O)(=O)c2ccccc2)ccc1C=Nc1ccc(C(=O)O)cc1`, for which the TGI in the experiment with KM20L2 colon is 28.6 µM; with MDA-N, greater than 100 µM; with LXFL 529 NSCLC, 3.52 µM; with M19-MEL melanoma, 7.32 µM; in the experiment with HOP-18 NSCLC, 16.6 µM; in the experiment with XF 498 CNS, 22.5 µM.

On to `[N-]=[N+]=C(C(=O)CN1CCCC1=O)S(=O)(=O)c1ccccc1`, for which the TGI with MDA-N is greater than 100 µM.

Turning to `CC(=O)OC1CC2(C)C(=CC1C1SCCS1)CCC1C2CCC2(C)C(OC(C)=O)CCC12` (stereo unspecified), in the experiment with MDA-N, the TGI was greater than 100 µM.

In the experiment on MDA-N, `O=[N+]([O-])c1c(O)c2nonc2c2nn(-c3ccccc3)nc12` showed a TGI greater than 100 µM.

With `Cc1ccc(/C=C2\CCCCC2=O)cc1`, the TGI in the experiment on KM20L2 colon, in the experiment on LXFL 529 NSCLC, in the experiment on M19-MEL melanoma, in the experiment with HOP-18 NSCLC, in the experiment on XF 498 CNS and in the experiment on RXF-631 renal was greater than 100 µM each time.

With `O=C(O)c1cc(NCc2cc(O)ccc2O)ccc1O`, the TGI in the experiment on MDA-N was 55.1 µM.

(Values after PubChem BioAssay (NCI).)
